Test [1] relates to Human betaherpesvirus 5. Briefly: Drug resistance, ratio of EC50 for Cytomegalovirus CMV T2417 pol A809V mutant to EC50 for Cytomegalovirus CMV T2211 by plaque reduction assay. The format is functional.
Test [2] concerns Human betaherpesvirus 5. Briefly: Antiviral activity against Cytomegalovirus CMV T2420 with pol G841A mutant infected in HFF cells by SEAP reporter gene assay. The following applies: Human betaherpesvirus 5, T2420, HFF. The format is functional, organism-based.
Test [3] has as its system Human betaherpesvirus 5. Description: Antiviral activity against Cytomegalovirus CMV T2542 with pol T813S mutant infected in HFF cells by SEAP reporter gene assay. It counts as functional, organism-based. The following applies: Human betaherpesvirus 5, T2542, HFF.
Test [4] relates to Human betaherpesvirus 5. Description: Antiviral activity against Cytomegalovirus CMV T2417 with pol A809V mutant infected in HFF cells by SEAP reporter gene assay. The format is functional, organism-based. The following applies: Human betaherpesvirus 5, T2417, HFF.
Test [5] concerns Human betaherpesvirus 5. Briefly: Antiviral activity against Cytomegalovirus CMV T2784 with pol A809V UL97 C592G double mutant infected in HFF cells by SEAP reporter gene assay. The format is functional, organism-based. To be noted: Human betaherpesvirus 5, T2784, HFF.
Test [6] concerns Human betaherpesvirus 5. Description: Antiviral activity against Cytomegalovirus CMV T2258 with UL97 C592G mutant infected in HFF cells by SEAP reporter gene assay. The format is functional, organism-based. The following applies: Human betaherpesvirus 5, T2258, HFF.
In test [7] the test system is Human betaherpesvirus 5. Description: Antiviral activity against Cytomegalovirus CMV T2211 infected in HFF cells by SEAP reporter gene assay. It counts as functional, organism-based. The following applies: Human betaherpesvirus 5, T2211, HFF.
The subject of test [8] is Human betaherpesvirus 5. Description: Antiviral activity against Cytomegalovirus CMV 2817 with pol G841A UL97 C592G double mutant infected in HFF cells by SEAP reporter gene assay. It counts as functional, organism-based. The following applies: Human betaherpesvirus 5, T2817, HFF.
Test [9] concerns Human betaherpesvirus 5. Briefly: Antiviral activity against Cytomegalovirus CMV T2798 with pol T813S UL97 C592G double mutant infected in HFF cells by SEAP reporter gene assay. The format is functional, organism-based. To be noted: Human betaherpesvirus 5, T2798, HFF.
In test [10] the test system is Human betaherpesvirus 5. Description: Drug resistance, ratio of EC50 for Cytomegalovirus CMV […] pol T813S mutant to EC50 for Cytomegalovirus CMV T2211 by SEAP reporter gene assay. It counts as functional.
For test [11], the system named is Human betaherpesvirus 5. Description: Drug resistance, ratio of EC50 for Cytomegalovirus CMV T2420 pol G841A mutant to EC50 for Cytomegalovirus CMV T2211 by SEAP reporter gene assay. The format is functional.
Test [12] deals with Human betaherpesvirus 5. Briefly: Drug resistance, ratio of EC50 for Cytomegalovirus CMV T2417 pol A809V mutant to EC50 for Cytomegalovirus CMV T2211 by SEAP reporter gene assay. It counts as functional.
In test [13] the test system is Human betaherpesvirus 5. Briefly: Drug resistance, ratio of EC50 for Cytomegalovirus CMV pol T821I mutant to EC50 for Cytomegalovirus CMV T2211 by SEAP reporter gene assay. The format is functional.
For test [14], the system named is Human betaherpesvirus 5. Briefly: Drug resistance, ratio of EC50 for Cytomegalovirus CMV T2817 with pol G841A UL97 C592G double mutant to EC50 for Cytomegalovirus CMV T2211 by SEAP reporter gene assay. It counts as functional.
Test [15] relates to Human betaherpesvirus 5. Description: Drug resistance, ratio of EC50 for Cytomegalovirus CMV T2798 with pol T813S UL97 C592G double mutant to EC50 for Cytomegalovirus CMV T2211 by SEAP reporter gene assay. It counts as functional.
The subject of test [16] is Human betaherpesvirus 5. Briefly: Drug resistance, ratio of EC50 for Cytomegalovirus CMV pol A384P mutant to EC50 for Cytomegalovirus CMV T2211 by SEAP reporter gene assay. The format is functional.
Test [17] deals with Human betaherpesvirus 5. Briefly: Drug resistance, ratio of EC50 for Cytomegalovirus CMV T2784 with pol A809V UL97 C592G double mutant to EC50 for Cytomegalovirus CMV T2211 by SEAP reporter gene assay. The format is functional.

As for `Nc1ccn(C[C@@H](CO)OCP(=O)(O)O)c(=O)n1.O.O` [CIDOFOVIR], the “fold change (FC)” value in the test with Human betaherpesvirus 5 [1] worked out at 1.6. The EC50 was determined as 0.58 µM in the test on Human betaherpesvirus 5 [2]; 0.6 µM in the test with Human betaherpesvirus 5 [3]; 0.42 µM in the test with Human betaherpesvirus 5 [4]; 0.45 µM in the test on Human betaherpesvirus 5 [5]; 0.27 µM in the test on Human betaherpesvirus 5 [6]; 0.22 µM with Human betaherpesvirus 5 [7]. In addition, the results for the EC50 in the test on Human betaherpesvirus 5 [8] and with Human betaherpesvirus 5 [9] were 0.67 µM and 0.37 µM, respectively.
On to `O=C(O)P(=O)(O)O` [FOSCARNET], for which the “fold change (FC)” value with Human betaherpesvirus 5 [1] is reported as 6.3; in the test with Human betaherpesvirus 5 [10], 3; in the test on Human betaherpesvirus 5 [11], 3; in the test on Human betaherpesvirus 5 [12] it was 3. The EC50 in the test on Human betaherpesvirus 5 [2] came out at 176 µM; in the test with Human betaherpesvirus 5 [3] it was 199 µM; in the test with Human betaherpesvirus 5 [4], 137 µM; with Human betaherpesvirus 5 [5], 137 µM; with Human betaherpesvirus 5 [6], 44 µM; with Human betaherpesvirus 5 [7] it was 41 µM. Besides, the EC50 came to 213 µM in the test with Human betaherpesvirus 5 [8] and 204 µM in the test on Human betaherpesvirus 5 [9].
For `Nc1nc2c(ncn2COC(CO)CO)c(=O)[nH]1` [GANCICLOVIR], the “fold change (FC)” value with Human betaherpesvirus 5 [1] stood at 2.6; in the test on Human betaherpesvirus 5 [13] it was 5; with Human betaherpesvirus 5 [14], 2; in the test on Human betaherpesvirus 5 [15], 2; in the test on Human betaherpesvirus 5 [16], 5; in the test on Human betaherpesvirus 5 [17], 2. For the same compound, the EC50 in the test with Human betaherpesvirus 5 [2] worked out at 3.5 µM; in the test with Human betaherpesvirus 5 [3], 2.7 µM; in the test with Human betaherpesvirus 5 [4] it was 2.6 µM; in the test on Human betaherpesvirus 5 [5], 6.1 µM; with Human betaherpesvirus 5 [6], 3.9 µM; with Human betaherpesvirus 5 [7], 1.1 µM. Moreover, the EC50 with Human betaherpesvirus 5 [8] amounted to 8.4 µM; with Human betaherpesvirus 5 [9], 6.6 µM.

Source of the values: ChEMBL document CHEMBL1137642, “Growth and drug resistance phenotypes resulting from cytomegalovirus DNA polymerase region III mutations observed in clinical specimens” (Antimicrob Agents Chemother, 2007).
